In ChEMBL document CHEMBL3797052 (Eur J Med Chem, 2016):

Assay: Antiproliferative activity against human HL-60(TB) cells assessed as growth inhibition after 48 hrs by sulforhodamine B assay
Type: functional
Details: HL-60, 48 h
CNC(=O)c1cc(Oc2ccc(NC(=O)Nc3ccc(Cl)c(C(F)(F)F)c3)cc2)ccn1 [SORAFENIB] showed a GI50 of 1.58 µM.

Assay: Antiproliferative activity against human OVCAR8 cells assessed as growth inhibition after 48 hrs by sulforhodamine B assay
Type: functional
Details: OVCAR-8, 48 h
Molecule CNC(=O)c1cc(Oc2ccc(NC(=O)Nc3ccc(Cl)c(C(F)(F)F)c3)cc2)ccn1 [SORAFENIB] has a GI50 of 2.51 µM and a TGI of 10 µM.

Assay: Antiproliferative activity against human SNB19 cells assessed as growth inhibition after 48 hrs by sulforhodamine B assay
Type: functional
Details: SNB-19, 48 h
With CNC(=O)c1cc(Oc2ccc(NC(=O)Nc3ccc(Cl)c(C(F)(F)F)c3)cc2)ccn1 [SORAFENIB] the GI50 was 3.16 µM and the TGI was 15.8 µM.

Assay: Antiproliferative activity against human SF295 cells assessed as growth inhibition after 48 hrs by sulforhodamine B assay
Type: functional
Details: SF-295, 48 h
Work on CNC(=O)c1cc(Oc2ccc(NC(=O)Nc3ccc(Cl)c(C(F)(F)F)c3)cc2)ccn1 [SORAFENIB] yielded a TGI of 5.01 µM.

Same assay, conditions: SF-295, 48 h, read-out: LC50 (the source's name)
Molecule CNC(=O)c1cc(Oc2ccc(NC(=O)Nc3ccc(Cl)c(C(F)(F)F)c3)cc2)ccn1 [SORAFENIB] has a CC50 of 31.6 µM.

Assay: Antiproliferative activity against human COLO205 cells assessed as growth inhibition after 48 hrs by sulforhodamine B assay
Type: functional
Details: COLO 205, 48 h
CNC(=O)c1cc(Oc2ccc(NC(=O)Nc3ccc(Cl)c(C(F)(F)F)c3)cc2)ccn1 [SORAFENIB] showed a GI50 of 2 µM and a TGI of 7.94 µM.

Same assay, conditions: COLO 205, 48 h, read-out: LC50 (the source's name)
With CNC(=O)c1cc(Oc2ccc(NC(=O)Nc3ccc(Cl)c(C(F)(F)F)c3)cc2)ccn1 [SORAFENIB] the CC50 was 31.6 µM.
